Assay results: patent publication US11267826B2, “Penicillin-binding protein inhibitors” (priority 2017, dated 2022)

Columns and labels:
[1] = test system: hyper-permeable E. coli 901C; assay: Broth microdilution MIC assay, hyper-permeable E. coli; assay type: cell-based; conditions: Escherichia coli, read-out: E. coli 901C MIC
Method in brief: (§1)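 Following CLSI procedures, compounds were serially diluted 2-fold and challenged with bacteria at 5×10^5 CFU/mL in Mueller-Hinton broth supplemented with divalent cations. After 16-20 hours at 37° C, the lowest concentration without visible growth was recorded as the MIC.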

S. aureus ATCC 29213 = assay: Broth microdilution MIC assay, S. aureus; assay type: cell-based; conditions: Staphylococcus aureus, ATCC29213; broth microdilution, 16-20 hours at 37° C.; read-out: S. aureus 29213 MIC
Method in brief: as §1

E. coli PBP3 = target: T1, E. coli PBP3 (Escherichia coli, UniProt P0AD68); assay: Bocillin FL competition binding assay, PBP3; parameters: species or system Escherichia coli K12; conditions: 15 min pre-incubation
T1 construct: 100 μg's of total membrane protein extracts containing PBPs; endogenous in cells; host or cells: Escherichia coli K12, membrane protein fraction
T1 sequence (P0AD68 1-577): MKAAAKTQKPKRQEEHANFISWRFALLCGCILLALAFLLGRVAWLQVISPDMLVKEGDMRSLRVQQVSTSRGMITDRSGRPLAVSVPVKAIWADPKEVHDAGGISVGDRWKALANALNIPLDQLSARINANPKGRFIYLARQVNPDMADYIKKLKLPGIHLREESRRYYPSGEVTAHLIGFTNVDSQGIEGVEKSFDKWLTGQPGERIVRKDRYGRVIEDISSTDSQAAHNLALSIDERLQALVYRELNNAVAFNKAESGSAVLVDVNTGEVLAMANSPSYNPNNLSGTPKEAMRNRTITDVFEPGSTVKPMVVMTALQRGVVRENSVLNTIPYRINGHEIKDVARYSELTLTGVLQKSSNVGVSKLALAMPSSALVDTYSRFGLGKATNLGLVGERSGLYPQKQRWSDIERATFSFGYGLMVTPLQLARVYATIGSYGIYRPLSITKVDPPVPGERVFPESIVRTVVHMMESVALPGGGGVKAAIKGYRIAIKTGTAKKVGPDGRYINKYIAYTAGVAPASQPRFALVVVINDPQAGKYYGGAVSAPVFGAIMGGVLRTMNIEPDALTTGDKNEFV
Method: (§2) To determine the ability of test compounds to bind Penicillin Binding Proteins (PBPs), a competition binding assay using Bocillin FL (fluorescent derivative of penicillin V) was adapted from the classical method used to assess PBP potency of beta-lactams.
(§3) Penicillin binding proteins were isolated from Escherichia coli K12 by growth of Escherichia coli K12 from a single colony in 4 L of Luria-Bertani (LB) broth at 35° C. and 250 rpm to an OD600 nm of 0.5. The cells were harvested by centrifugation at 7,000×g for 10 min. at 4° C. Cells were resuspended and washed in 50 mM potassium phosphate pH 7.5. The cells were re-suspended in sonication buffer [50 mM Tris-HCl pH 7.5, 1 mM MgCl2, 1 mM beta-mercaptoethanol, and 5 μg/mL DNAse I] and sonicated by 4 passes of 30 seconds at 45 W on ice. The sample was clarified by centrifugation at 3,000×g to remove cell debris and unbroken cells and supernatant containing the membrane proteins was retained. The membrane proteins including the PBPs were further purified from soluble constituents by an ultracentrifugation step at 100,000×g for 30 min. at 4° C. The membrane proteins are washed twice with 10 mM sodium phosphate pH 7, resuspended in a volume of 5 mL, quantitated by BCA assay, adjusted to […] and frozen at −80° C. until use.
(§4) The adapted Bocillin FL competition binding method described herein incorporates a 15 min. pre-incubation of test compound with isolated PBPs to attempt to balance the difference in mechanism of inhibition between beta-lactams (largely irreversible covalent bond to active site Serine) and the boron-containing PBP inhibitor test compounds (reversible covalent bond to active site Serine). Briefly, 50 μL reactions consisted of 100 μg's of total membrane protein extracts containing PBPs incubated with a dilution series of test compound ranging from 0.005 μg/mL to 2,480 μg/mL in 10 mM sodium phosphate pH7 containing 350 mM NaCl. Thirty minute reactions at 35° C. were initiated by addition of […] Bocillin FL, quenched by addition of SDS-PAGE loading buffer containing sodium dodecyl sulfate (SDS) and heated for 15 minutes at 95° C. to denature proteins in preparation for SDS-polyacrylamide gel electrophoresis. The Bocillin FL labeled PBPs are then separated by SDS-PAGE in Novex NuPage 10% Bis-Tris pre-cast gels (Invitrogen). The SDS-PAGE gel, post-electrophoresis, is then washed in water to remove excess SDS for 10 minutes at room temperature and placed on the scanning bed of a GE Healthcare/Amersham Biosciences Storm 860 fluorescence scanner. The excitation wavelength is in the blue spectrum at 450 nm and the emission at 520 nm is captured by the instrument. Effective PBP inhibitors are detected by a reduction in Bocillin FL labeling of the particular PBP over the dose range of test compound in a dose-responsive manner. High molecular weight PBP 1a/1b are not resolved by these gels, thus we report HMW PBP binding results in μg/mL for PBPs 1a/1b combined as well as for PBP2 and PBP3.
(§5) Representative results are shown in Table 2, where A represents a potency of >1000 μg/mL, B represents a potency between 64 and 1000 μg/mL inclusive, and C represents a potency of <64 μg/mL. NT=Not Tested.

E. coli K12 PBP1a/b = assay: Bocillin FL competition binding assay, PBP1a/1b combined; parameters: species or system Escherichia coli K12; conditions: 15 min pre-incubation, PBP 1a/1b combined
Method: as §2, §3, §4, §5

E. coli PBP2 = target: T2, E. coli PBP2 (Escherichia coli, UniProt P0AD65); assay: Bocillin FL competition binding assay, PBP2; parameters: species or system Escherichia coli K12; conditions: 15 min pre-incubation
T2 construct: 100 μg's of total membrane protein extracts containing PBPs; endogenous in cells; host or cells: Escherichia coli K12, membrane protein fraction
T2 sequence (P0AD65 whole entry): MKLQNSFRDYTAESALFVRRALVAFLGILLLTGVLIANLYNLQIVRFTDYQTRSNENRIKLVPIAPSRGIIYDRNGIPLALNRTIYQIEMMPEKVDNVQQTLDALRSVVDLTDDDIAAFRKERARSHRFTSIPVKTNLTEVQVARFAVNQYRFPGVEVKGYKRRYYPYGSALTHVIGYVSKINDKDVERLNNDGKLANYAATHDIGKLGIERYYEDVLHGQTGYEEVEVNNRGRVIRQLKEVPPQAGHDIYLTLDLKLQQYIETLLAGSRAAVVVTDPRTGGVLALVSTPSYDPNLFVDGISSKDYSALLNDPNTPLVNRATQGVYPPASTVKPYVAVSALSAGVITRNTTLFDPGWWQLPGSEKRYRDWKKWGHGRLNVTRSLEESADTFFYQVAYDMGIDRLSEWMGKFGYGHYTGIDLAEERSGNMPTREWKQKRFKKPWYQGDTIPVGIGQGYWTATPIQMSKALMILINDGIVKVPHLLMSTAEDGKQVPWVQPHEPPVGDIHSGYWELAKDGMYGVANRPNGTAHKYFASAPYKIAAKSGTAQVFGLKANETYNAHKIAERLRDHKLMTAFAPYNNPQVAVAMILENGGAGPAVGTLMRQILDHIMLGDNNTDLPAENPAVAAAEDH
Method: as §2, §3, §4, §5

N#Cc1ccc(OCCO/N=C(\C(=O)N[C@H]2Cc3cccc(C(=O)O)c3OB2O)c2csc(N)n2)cc1 [Example 46, (R,Z)-3-(2-(2-aminothiazol-4-yl)-2-((2-(4-cyanophenoxy)ethoxy)imino)acetamido)-2-hydroxy-3,4-dihydro-2H-benzo[e][1,2]oxaborinine-8-carboxylic Acid]
MIC [1]: < 64 µg/mL | MIC (S. aureus ATCC 29213): 64 to 128 µg/mL | E. coli PBP3 Potency (E. coli PBP3): B (B represents a potency between 64 and 1000 μg/mL inclusive) | E. coli K12 PBP1a/b Potency (E. coli K12 PBP1a/b): C (C represents a potency of <64 μg/mL) | E. coli PBP2 Potency (E. coli PBP2): C (C represents a potency of <64 μg/mL)

N=C(NCCN)c1ccc(OCCO/N=C(\C(=O)N[C@H]2Cc3cccc(C(=O)O)c3OB2O)c2csc(N)n2)cc1 [Example 64, (R,Z)-3-(2-((2-(4-(N-(2-aminoethyl)carbamimidoyl)phenoxy)ethoxy)imino)-2-(2-aminothiazol-4-yl)acetamido)-2-hydroxy-3,4-dihydro-2H-benzo[e][1,2]oxaborinine-8-carboxylic Acid]
MIC [1]: < 64 µg/mL | MIC (S. aureus ATCC 29213): > 128 µg/mL | E. coli PBP3 Potency (E. coli PBP3): C (C represents a potency of <64 μg/mL) | E. coli K12 PBP1a/b Potency (E. coli K12 PBP1a/b): C (C represents a potency of <64 μg/mL) | E. coli PBP2 Potency (E. coli PBP2): B (B represents a potency between 64 and 1000 μg/mL inclusive)

CC(C)(O/N=C(\C(=O)N[C@H]1Cc2cccc(C(=O)O)c2OB1O)c1csc(N)n1)C(N)=O [Example 72, (R,Z)-3-(2-(((1-amino-2-methyl-1-oxopropan-2-yl)oxy)imino)-2-(2-aminothiazol-4-yl)acetamido)-2-hydroxy-3,4-dihydro-2H-benzo[e][1,2]oxaborinine-8-carboxylic Acid]
MIC [1]: < 64 µg/mL | MIC (S. aureus ATCC 29213): > 128 µg/mL | E. coli PBP3 Potency (E. coli PBP3): C (C represents a potency of <64 μg/mL) | E. coli K12 PBP1a/b Potency (E. coli K12 PBP1a/b): C (C represents a potency of <64 μg/mL) | E. coli PBP2 Potency (E. coli PBP2): C (C represents a potency of <64 μg/mL)

Nc1nc(/C(=N/OCC(=O)N2CCNCC2)C(=O)N[C@H]2Cc3cccc(C(=O)O)c3OB2O)cs1 [Example 58, (R,Z)-3-(2-(2-aminothiazol-4-yl)-2-((2-oxo-2-(piperazin-1-yl)ethoxy)imino)acetamido)-2-hydroxy-3,4-dihydro-2H-benzo[e][1,2]oxaborinine-8-carboxylic Acid]
MIC [1]: < 64 µg/mL | MIC (S. aureus ATCC 29213): > 128 µg/mL | E. coli PBP3 Potency (E. coli PBP3): C (C represents a potency of <64 μg/mL) | E. coli K12 PBP1a/b Potency (E. coli K12 PBP1a/b): B (B represents a potency between 64 and 1000 μg/mL inclusive) | E. coli PBP2 Potency (E. coli PBP2): C (C represents a potency of <64 μg/mL)

N=C(N)c1ccc(OCCO/N=C(\C(=O)N[C@H]2Cc3cccc(C(=O)O)c3OB2O)c2csc(N)n2)cc1 [Example 55, (R,Z)-3-(2-(2-aminothiazol-4-yl)-2-((2-(4-carbamimidoylphenoxy)ethoxy)imino)acetamido)-2-hydroxy-3,4-dihydro-2H-benzo[e][1,2]oxaborinine-8-carboxylic Acid]
MIC [1]: < 64 µg/mL | MIC (S. aureus ATCC 29213): > 128 µg/mL | E. coli PBP3 Potency (E. coli PBP3): C (C represents a potency of <64 μg/mL) | E. coli K12 PBP1a/b Potency (E. coli K12 PBP1a/b): C (C represents a potency of <64 μg/mL) | E. coli PBP2 Potency (E. coli PBP2): B (B represents a potency between 64 and 1000 μg/mL inclusive)

Nc1nc(/C(=N/O)C(=O)N[C@H]2Cc3cccc(C(=O)O)c3OB2O)c(Cl)s1 [Example 17, (R,Z)-3-(2-(2-amino-5-chlorothiazol-4-yl)-2-(hydroxyimino)acetamido)-2-hydroxy-3,4-dihydro-2H-benzo[e][1,2]oxaborinine-8-carboxylic Acid]
MIC [1]: 64 to 128 µg/mL | MIC (S. aureus ATCC 29213): < 64 µg/mL | E. coli PBP3 Potency (E. coli PBP3): B (B represents a potency between 64 and 1000 μg/mL inclusive) | E. coli K12 PBP1a/b Potency (E. coli K12 PBP1a/b): B (B represents a potency between 64 and 1000 μg/mL inclusive) | E. coli PBP2 Potency (E. coli PBP2): B (B represents a potency between 64 and 1000 μg/mL inclusive)

Nc1nc(/C(=N/OCCOc2ccccc2)C(=O)N[C@H]2Cc3cccc(C(=O)O)c3OB2O)cs1 [Example 50, (R,Z)-3-(2-(2-aminothiazol-4-yl)-2-((2-phenoxyethoxy)imino)acetamido)-2-hydroxy-3,4-dihydro-2H-benzo[e][1,2]oxaborinine-8-carboxylic Acid]
MIC [1]: < 64 µg/mL | MIC (S. aureus ATCC 29213): 64 to 128 µg/mL | E. coli PBP3 Potency (E. coli PBP3): B (B represents a potency between 64 and 1000 μg/mL inclusive) | E. coli K12 PBP1a/b Potency (E. coli K12 PBP1a/b): B (B represents a potency between 64 and 1000 μg/mL inclusive) | E. coli PBP2 Potency (E. coli PBP2): B (B represents a potency between 64 and 1000 μg/mL inclusive)

Nc1nc(/C(=N/O)C(=O)N[C@H]2Cc3cc(F)c(F)c(C(=O)O)c3OB2O)cs1 [Example 41, (R,Z)-3-(2-(2-aminothiazol-4-yl)-2-(hydroxyimino)acetamido)-6,7-difluoro-2-hydroxy-3,4-dihydro-2H-benzo[e][1,2]oxaborinine-8-carboxylic Acid]
MIC [1]: < 64 µg/mL | MIC (S. aureus ATCC 29213): 64 to 128 µg/mL | E. coli PBP3 Potency (E. coli PBP3): B (B represents a potency between 64 and 1000 μg/mL inclusive) | E. coli K12 PBP1a/b Potency (E. coli K12 PBP1a/b): B (B represents a potency between 64 and 1000 μg/mL inclusive) | E. coli PBP2 Potency (E. coli PBP2): B (B represents a potency between 64 and 1000 μg/mL inclusive)

Nc1nc(/C(=N/O)C(=O)N[C@H]2Cc3cc(Cl)cc(C(=O)O)c3OB2O)cs1 [Example 44, (R,Z)-3-(2-(2-aminothiazol-4-yl)-2-(hydroxyimino)acetamido)-6-chloro-2-hydroxy-3,4-dihydro-2H-benzo[e][1,2]oxaborinine-8-carboxylic Acid]
MIC [1]: < 64 µg/mL | MIC (S. aureus ATCC 29213): < 64 µg/mL | E. coli PBP3 Potency (E. coli PBP3): B (B represents a potency between 64 and 1000 μg/mL inclusive) | E. coli K12 PBP1a/b Potency (E. coli K12 PBP1a/b): B (B represents a potency between 64 and 1000 μg/mL inclusive) | E. coli PBP2 Potency (E. coli PBP2): B (B represents a potency between 64 and 1000 μg/mL inclusive)

CC(C)(O/N=C(\C(=O)N[C@H]1Cc2cccc(C(=O)O)c2OB1O)c1csc(N)n1)C(=O)N[C@@H](CO)C(=O)O [Example 74, (R)-3-((Z)-2-(2-aminothiazol-4-yl)-2-(((1-(((S)-1-carboxy-2-hydroxyethyl)amino)-2-methyl-1-oxopropan-2-yl)oxy)imino)acetamido)-2-hydroxy-3,4-dihydro-2H-benzo[e][1,2]oxaborinine-8-carboxylic Acid]
MIC [1]: < 64 µg/mL | MIC (S. aureus ATCC 29213): > 128 µg/mL | E. coli PBP3 Potency (E. coli PBP3): C (C represents a potency of <64 μg/mL) | E. coli K12 PBP1a/b Potency (E. coli K12 PBP1a/b): C (C represents a potency of <64 μg/mL) | E. coli PBP2 Potency (E. coli PBP2): C (C represents a potency of <64 μg/mL)

CNC(=O)C(C)O/N=C(\C(=O)N[C@H]1Cc2cccc(C(=O)O)c2OB1O)c1csc(N)n1 (stereo partly drawn) [Example 70, (3R)-3-((Z)-2-(2-aminothiazol-4-yl)-2-(((1-(methylamino)-1-oxopropan-2-yl)oxy)imino)acetamido)-2-hydroxy-3,4-dihydro-2H-benzo[e][1,2]oxaborinine-8-carboxylic Acid]
MIC [1]: < 64 µg/mL | MIC (S. aureus ATCC 29213): > 128 µg/mL | E. coli PBP3 Potency (E. coli PBP3): C (C represents a potency of <64 μg/mL) | E. coli K12 PBP1a/b Potency (E. coli K12 PBP1a/b): C (C represents a potency of <64 μg/mL) | E. coli PBP2 Potency (E. coli PBP2): C (C represents a potency of <64 μg/mL)
